Experimental data published in ChEMBL document CHEMBL1150762, “Homology modeling and site-directed mutagenesis to identify selective inhibitors of endothelin-converting enzyme-2” (J Med Chem, 2008).

Columns and labels:
[1] = target: T1, Endothelin-converting enzyme 2 (Homo sapiens, UniProt P0DPD6); experiment: Reduction of recombinant ECE2 activity measured by McaBk2 fluorescent substrate hydrolysis
T1 sequence (P0DPD6 whole entry): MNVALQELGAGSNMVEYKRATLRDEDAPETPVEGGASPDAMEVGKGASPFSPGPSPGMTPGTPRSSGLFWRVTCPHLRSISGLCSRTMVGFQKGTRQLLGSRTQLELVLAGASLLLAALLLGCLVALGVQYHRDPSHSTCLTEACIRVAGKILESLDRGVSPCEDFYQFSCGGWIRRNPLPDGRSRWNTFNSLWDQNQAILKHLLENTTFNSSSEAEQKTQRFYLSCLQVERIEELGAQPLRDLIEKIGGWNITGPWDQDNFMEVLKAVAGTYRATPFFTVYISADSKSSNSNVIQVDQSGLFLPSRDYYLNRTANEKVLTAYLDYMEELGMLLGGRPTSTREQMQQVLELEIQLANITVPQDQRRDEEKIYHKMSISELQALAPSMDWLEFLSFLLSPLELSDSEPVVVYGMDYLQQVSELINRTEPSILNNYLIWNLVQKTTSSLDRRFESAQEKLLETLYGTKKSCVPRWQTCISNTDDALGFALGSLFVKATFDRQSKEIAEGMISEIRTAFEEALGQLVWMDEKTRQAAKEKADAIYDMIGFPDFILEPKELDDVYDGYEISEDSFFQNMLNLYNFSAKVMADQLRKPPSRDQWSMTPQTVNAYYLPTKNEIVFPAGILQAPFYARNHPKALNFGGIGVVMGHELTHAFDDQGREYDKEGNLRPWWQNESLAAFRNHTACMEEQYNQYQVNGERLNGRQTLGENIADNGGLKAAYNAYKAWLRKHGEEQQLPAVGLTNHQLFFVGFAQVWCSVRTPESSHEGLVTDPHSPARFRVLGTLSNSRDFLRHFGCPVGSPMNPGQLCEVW

Neprilysin = Neprilysin (Homo sapiens, UniProt P08473); experiment: Inhibition of Neprilysin
Chain of Neprilysin (P08473 whole entry): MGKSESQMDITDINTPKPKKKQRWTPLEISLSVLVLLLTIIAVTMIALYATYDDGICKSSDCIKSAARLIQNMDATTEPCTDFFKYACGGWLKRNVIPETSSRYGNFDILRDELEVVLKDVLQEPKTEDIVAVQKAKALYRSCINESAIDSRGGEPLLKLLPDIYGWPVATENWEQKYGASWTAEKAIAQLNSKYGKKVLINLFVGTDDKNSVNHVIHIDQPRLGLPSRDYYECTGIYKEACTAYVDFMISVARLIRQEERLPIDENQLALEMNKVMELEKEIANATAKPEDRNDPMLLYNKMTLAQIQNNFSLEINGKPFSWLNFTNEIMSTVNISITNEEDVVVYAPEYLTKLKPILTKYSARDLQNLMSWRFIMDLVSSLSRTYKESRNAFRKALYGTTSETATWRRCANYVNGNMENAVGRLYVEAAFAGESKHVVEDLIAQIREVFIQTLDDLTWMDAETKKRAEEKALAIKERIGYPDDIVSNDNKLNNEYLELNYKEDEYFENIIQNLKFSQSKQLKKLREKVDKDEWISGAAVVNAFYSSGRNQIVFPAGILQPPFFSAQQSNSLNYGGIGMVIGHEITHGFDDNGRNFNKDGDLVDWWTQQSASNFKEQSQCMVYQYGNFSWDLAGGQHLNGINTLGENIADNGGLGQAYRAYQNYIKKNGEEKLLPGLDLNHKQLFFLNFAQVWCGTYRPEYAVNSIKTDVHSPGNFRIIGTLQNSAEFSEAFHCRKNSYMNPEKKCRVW

[2] = target: T2, Endothelin-converting enzyme 2 (Homo sapiens) (UniProt P0DPD6); experiment: Reduction of recombinant ECE2 activity measured by McaBk2 fluorescent substrate hydrolysis at 10 uM; set-up: scale not given: the % may be the effect or the level left
T2 sequence (whole entry): T1 sequence (P0DPD6 whole entry)

| SMILES | IC50 [1] | IC50 (Neprilysin) | Activity [2] |
| --- | --- | --- | --- |
| COc1cccc(/C=C/c2ccc3cccc(O)c3n2)c1 | 35.7 µM | – | – |
| COc1cccc(/C=C/c2ccc3cccc(O)c3n2)c1O | 32.9 µM | – | – |

The remaining lines, values ahead:

| IC50 [1] | IC50 (Neprilysin) | Activity [2] | SMILES |
| --- | --- | --- | --- |
| 5.83 µM | > 50 µM | > 70% | O=C(Cc1ccc2nccnc2c1)N1CCCC1 |
| 6.42 µM | > 100 µM | > 70% | Oc1ccccc1/C=C/c1ccc2ccccc2n1 |
| 4.63 µM | – | – | Oc1ccccc1/C=C\c1ccc2ccccc2n1 |
